Test results taken from patent US11919897B2, “Inhibitors of human immunodeficiency virus replication” (VIIV HEALTHCARE UK (No. 5) LIMITED, priority 2018, dated 2024).

Columns and labels:
[1] = system: recombinant NL4-3 virus (nef section replaced with Renilla luciferase gene) in MT-2 cells; test: HIV cell culture assay (antiviral activity, luciferase readout in infected MT-2 cells); type: cell-based; conditions: Renilla, NL43
Method: HIV cell culture assay-MT-2 cells, 293T cells and the proviral DNA clone of NL4-3 virus were obtained from the NIH AIDS Research and Reference Reagent Program. MT-2 cells were propagated in RPMI 1640 media supplemented with 10% heat inactivated fetal bovine serum (FBS), 100 μg/ml penicillin G and up to 100 units/mL streptomycin. The 293T cells were propagated in DMEM media supplemented with 10% heat inactivated FBS, 100 μg/mL penicillin G and 100 μg/mL streptomycin. A recombinant NL4-3 proviral clone, in which a section of the nef gene was replaced with the Renilla luciferase gene, was used to make the reference virus used in these studies. The recombinant virus was prepared through transfection of the recombinant NL4-3 proviral clone into 293T cells using Transit-293 Transfection Reagent from Minis Bio LLC (Madison, WI). Supernatent was harvested after 2-3 days and the amount of virus present was titered in MT-2 cells using luciferase enzyme activity as a marker by measuring luciferase enzyme activity. Luciferase was quantitated using the EnduRen Live Cell Substrate from Promega (Madison, WI). Antiviral activities of compounds toward the recombinant virus were quantified by measuring luciferase activity in MT-2 cells infected for 4-5 days with the recombinant virus in the presence of serial dilutions of the compound.
The 50% effective concentration (EC50) was calculated by using the exponential form of the median effect equation where (Fa)=1/[1+(ED50/drug conc.)m] (Johnson V A, Byington R T. Infectivity Assay. In Techniques in HIV Research. ed. Aldovini A, Walker B D. 71-76. New York: Stockton Press. 1990).

[2] = Compound cytotoxicity, XTT-based colorimetric assay; type: cell-based; conditions: human; uninfected MT2 cells, day 4, XTT assay
Method: Compound cytotoxicity and the corresponding CC50 values were determined using the same protocol as described in the antiviral assay except that uninfected cells were used. Cytotoxicity was assessed on day 4 in uninfected MT2 cells by using an XTT (2,3-bis[2-Methoxy-4-nitro-5-sulfophenyl]-2H-tetrazolium-5-carboxyanilide inner salt)-based colorimetric assay (Sigma-Aldrich, St Louis, Mo.).

## CC(C)OCCOc1ccc2c(=O)n(-c3ccc(Cl)c4c(NS(C)(=O)=O)nn(C)c34)c([C@H](Cc3cc(F)cc(F)c3)NC(=O)Cn3nc(C(F)F)c4c3C(F)(F)[C@@H]3C[C@H]43)nc2n1 (atropisomer, axis not shown; (P)) [Example 4, N—((S)-1-((3P)-3-(4-chloro-1-methyl-3-(methylsulfonamido)-1H-indazol-7-yl)-7-(2-isopropoxyethoxy)-4-oxo-3,4-dihydropyrido[2,3-d]pyrimidin-2-yl)-2-(3,5-difluorophenyl)ethyl)-2-((3bS,4aR)-3-(difluoromethyl)-5,5-difluoro-3b,4,4a,5-tetrahydro-1H-cyclopropa[3,4]cyclopenta[1,2-c]pyrazol-1-yl)acetamide]
[1]
  EC50: < 0.05 nM
[2]
  CC50 at 4 days: > 1000 nM

## Cn1nc(NS(C)(=O)=O)c2c(Cl)ccc(-n3c([C@H](Cc4cc(F)cc(F)c4)NC(=O)Cn4nc(C(F)F)c5c4C(F)(F)[C@@H]4C[C@H]54)nc4nc(OCCN5CCS(=O)(=O)CC5)ccc4c3=O)c21 (atropisomer, axis not shown; (P)) [Example 7, N—((S)-1-((3P)-3-(4-chloro-1-methyl-3-(methylsulfonamido)-1H-indazol-7-yl)-7-(2-(1,1-dioxidothiomorpholino)ethoxy)-4-oxo-3,4-dihydropyrido[2,3-d]pyrimidin-2-yl)-2-(3,5-difluorophenyl)ethyl)-2-((3bS,4aR)-3-(difluoromethyl)-5,5-difluoro-3b,4,4a,5-tetrahydro-1H-cyclopropa[3,4]cyclopenta[1,2-c]pyrazol-1-yl)acetamide]
[1]
  EC50: 0.26 nM
[2]
  CC50 at 4 days: > 1000 nM

## Cn1nc(NS(C)(=O)=O)c2c(Cl)ccc(-n3c([C@H](Cc4cc(F)cc(F)c4)NC(=O)Cn4nc(C(F)F)c5c4C(F)(F)[C@@H]4C[C@H]54)nc4nc(OCCN5CCCCC5)ccc4c3=O)c21 (atropisomer, axis not shown; (P)) [Example 11, N—((S)-1-((3P)-3-(4-chloro-1-methyl-3-(methylsulfonamido)-1H-indazol-7-yl)-4-oxo-7-(2-(piperidin-1-yl)ethoxy)-3,4-dihydropyrido[2,3-d]pyrimidin-2-yl)-2-(3,5-difluorophenyl)ethyl)-2-((3bS,4aR)-3-(difluoromethyl)-5,5-difluoro-3b,4,4a,5-tetrahydro-1H-cyclopropa[3,4]cyclopenta[1,2-c]pyrazol-1-yl)acetamide]
[1]
  EC50: 0.49 nM
[2]
  CC50 at 4 days: > 1000 nM

## CC(C)(C)CCOc1ccc2c(=O)n(-c3ccc(Cl)c4c(NS(C)(=O)=O)nn(CC(F)F)c34)c([C@H](Cc3cc(F)cc(F)c3)NC(=O)Cn3nc(C(F)F)c4c3C(F)(F)[C@@H]3C[C@H]43)nc2n1 (atropisomer, axis not shown; (P)) [Example 14, N—((S)-1-((3P)-3-(4-chloro-1-(2,2-difluoroethyl)-3-(methylsulfonamido)-1H-indazol-7-yl)-7-(3,3-dimethylbutoxy)-4-oxo-3,4-dihydropyrido[2,3-d]pyrimidin-2-yl)-2-(3,5-difluorophenyl)ethyl)-2-((3bS,4aR)-3-(difluoromethyl)-5,5-difluoro-3b,4,4a,5-tetrahydro-1H-cyclopropa[3,4]cyclopenta[1,2-c]pyrazol-1-yl)acetamide]
[1]
  EC50: 0.12 nM
[2]
  CC50 at 4 days: > 500 nM

## C[C@@H](Oc1ccc2c(=O)n(-c3ccc(Cl)c4c(NS(C)(=O)=O)nn(C)c34)c([C@H](Cc3cc(F)cc(F)c3)NC(=O)Cn3nc(C(F)F)c4c3C(F)(F)[C@@H]3C[C@H]43)nc2n1)C1CCCC1 (atropisomer, axis not shown; (P)) [Example 16, N—((S)-1-((3P)-3-(4-chloro-1-methyl-3-(methylsulfonamido)-1H-indazol-7-yl)-7-((R)-1-cyclopentylethoxy)-4-oxo-3,4-dihydropyrido[2,3-d]pyrimidin-2-yl)-2-(3,5-difluorophenyl)ethyl)-2-((3bS,4aR)-3-(difluoromethyl)-5,5-difluoro-3b,4,4a,5-tetrahydro-1H-cyclopropa[3,4]cyclopenta[1,2-c]pyrazol-1-yl)acetamide]
[1]
  EC50: 0.22 nM
[2]
  CC50 at 4 days: > 500 nM

## Cn1nc(NS(C)(=O)=O)c2c(Cl)ccc(-n3c([C@H](Cc4cc(F)cc(F)c4)NC(=O)Cn4nc(C(F)F)c5c4C(F)(F)[C@@H]4C[C@H]54)nc4nc(OCCc5nccs5)ccc4c3=O)c21 (atropisomer, axis not shown; (P)) [Example 18, N—((S)-1-((3P)-3-(4-chloro-1-methyl-3-(methylsulfonamido)-1H-indazol-7-yl)-4-oxo-7-(2-(thiazol-2-yl)ethoxy)-3,4-dihydropyrido[2,3-d]pyrimidin-2-yl)-2-(3,5-difluorophenyl)ethyl)-2-((3bS,4aR)-3-(difluoromethyl)-5,5-difluoro-3b,4,4a,5-tetrahydro-1H-cyclopropa[3,4]cyclopenta[1,2-c]pyrazol-1-yl)acetamide]
[1]
  EC50: 0.038 nM
[2]
  CC50 at 4 days: > 500 nM

## Cn1nc(NS(C)(=O)=O)c2c(Cl)ccc(-n3c([C@H](Cc4cc(F)cc(F)c4)NC(=O)Cn4nc(C(F)F)c5c4C(F)(F)[C@@H]4C[C@H]54)nc4nc(OCCCS(C)(=O)=O)ccc4c3=O)c21 (atropisomer, axis not shown; (P)) [Example 20, N—((S)-1-((3P)-3-(4-chloro-1-methyl-3-(methylsulfonamido)-1H-indazol-7-yl)-7-(3-(methylsulfonyl)propoxy)-4-oxo-3,4-dihydropyrido[2,3-d]pyrimidin-2-yl)-2-(3,5-difluorophenyl)ethyl)-2-((3bS,4aR)-3-(difluoromethyl)-5,5-difluoro-3b,4,4a,5-tetrahydro-1H-cyclopropa[3,4]cyclopenta[1,2-c]pyrazol-1-yl)acetamide]
[1]
  EC50: 0.18 nM
[2]
  CC50 at 4 days: > 500 nM

## C[C@H](Oc1ccc2c(=O)n(-c3ccc(Cl)c4c(NS(C)(=O)=O)nn(C)c34)c([C@H](Cc3cc(F)cc(F)c3)NC(=O)Cn3nc(C(F)F)c4c3C(F)(F)[C@@H]3C[C@H]43)nc2n1)C1CCCC1 (atropisomer, axis not shown; (P)) [Example 23, N—((S)-1-((3P)-3-(4-chloro-1-methyl-3-(methylsulfonamido)-1H-indazol-7-yl)-7-((S)-1-cyclopentylethoxy)-4-oxo-3,4-dihydropyrido[2,3-d]pyrimidin-2-yl)-2-(3,5-difluorophenyl)ethyl)-2-((3bS,4aR)-3-(difluoromethyl)-5,5-difluoro-3b,4,4a,5-tetrahydro-1H-cyclopropa[3,4]cyclopenta[1,2-c]pyrazol-1-yl)acetamide]
[1]
  EC50: 0.17 nM
[2]
  CC50 at 4 days: > 500 nM

## Cn1nc(NS(C)(=O)=O)c2c(Cl)ccc(-n3c([C@H](Cc4cc(F)cc(F)c4)NC(=O)Cn4nc(C(F)F)c5c4C(F)(F)[C@@H]4C[C@H]54)nc4nc(OCCC5CC5)ccc4c3=O)c21 (atropisomer, axis not shown; (P)) [Example 24, N—((S)-1-((3P)-3-(4-chloro-1-methyl-3-(methylsulfonamido)-1H-indazol-7-yl)-7-(2-cyclopropylethoxy)-4-oxo-3,4-dihydropyrido[2,3-d]pyrimidin-2-yl)-2-(3,5-difluorophenyl)ethyl)-2-((3bS,4aR)-3-(difluoromethyl)-5,5-difluoro-3b,4,4a,5-tetrahydro-1H-cyclopropa[3,4]cyclopenta[1,2-c]pyrazol-1-yl)acetamide]
[1]
  EC50: 0.051 nM
[2]
  CC50 at 4 days: > 500 nM

## CC(C)COCCOc1ccc2c(=O)n(-c3ccc(Cl)c4c(NS(C)(=O)=O)nn(C)c34)c([C@H](Cc3cc(F)cc(F)c3)NC(=O)Cn3nc(C(F)F)c4c3C(F)(F)[C@@H]3C[C@H]43)nc2n1 (atropisomer, axis not shown; (P)) [Example 25, N—((S)-1-((3P)-3-(4-chloro-1-methyl-3-(methylsulfonamido)-1H-indazol-7-yl)-7-(2-isobutoxyethoxy)-4-oxo-3,4-dihydropyrido[2,3-d]pyrimidin-2-yl)-2-(3,5-difluorophenyl)ethyl)-2-((3bS,4aR)-3-(difluoromethyl)-5,5-difluoro-3b,4,4a,5-tetrahydro-1H-cyclopropa[3,4]cyclopenta[1,2-c]pyrazol-1-yl)acetamide]
[1]
  EC50: 0.054 nM
[2]
  CC50 at 4 days: > 100 nM

## Cn1nc(NS(C)(=O)=O)c2c(Cl)ccc(-n3c([C@H](Cc4cc(F)cc(F)c4)NC(=O)Cn4nc(C(F)F)c5c4C(F)(F)[C@@H]4C[C@H]54)nc4nc(OCc5ccccc5)ccc4c3=O)c21 (atropisomer, axis not shown; (P)) [Example 26, N—((S)-1-(7-(benzyloxy)-(3P)-3-(4-chloro-1-methyl-3-(methylsulfonamido)-1H-indazol-7-yl)-4-oxo-3,4-dihydropyrido[2,3-d]pyrimidin-2-yl)-2-(3,5-difluorophenyl)ethyl)-2-((3bS,4aR)-3-(difluoromethyl)-5,5-difluoro-3b,4,4a,5-tetrahydro-1H-cyclopropa[3,4]cyclopenta[1,2-c]pyrazol-1-yl)acetamide]
[1]
  EC50: 0.1 nM
[2]
  CC50 at 4 days: > 100 nM
